Measurements taken from patent US20120277209A1, “PYRAZINE COMPOUNDS AS PHOSPHODIESTERASE 10 INHIBITORS” (Amgen Inc., priority 2009, published 2012).

target: PDE10 (UniProt Q9Y233); test: PDE10 enzyme inhibition, IMAP TR-FRET assay (MPDE10A7 Enzyme Activity and Inhibition); assay type: biochemical; settings: IC50 class against PDE10; read-out: IC50
In short: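 IMAP TR-FRET read-out of PDE10 hydrolysis of fluorescein-cAMP or -cGMP (60 min, room temperature), after a 30 min compound-enzyme preincubation. Enzyme source was PDE10A or tissue homogenate. Averaged IC50s are reported as five range classes.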

SMILES	IC50 [nM]
c1ccc2sc(Nc3ccc(Oc4nccnc4C4CCCOC4)cc3)nc2c1 (centres unmarked) [Example 193, N-(4-(3-(tetrahydro-2H-pyran-3-yl)pyrazin-2-yloxy)phenyl)benzo[d]thiazol-2-amine]	< 25
CC(C)(C)OC(=O)N1CC=C(c2nccnc2Oc2ccc(Nc3nc4ccccc4s3)c(F)c2)CC1 [Example 159, tert-butyl 4-(3-(4-(benzo[d]thiazol-2-ylamino)-3-fluorophenoxy)pyrazin-2-yl)-5,6-dihydropyridine-1(2H)-carboxylate]	< 25
COC(=O)C1CCN(c2nccnc2Oc2ccc(Nc3nc4ccccc4s3)cc2)C1 (centres unmarked) [Example 96, methyl 1-(3-(4-(benzo[d]thiazol-2-ylamino)phenoxy)pyrazin-2-yl)pyrrolidine-3-carboxylate]	< 25
COc1cc(-c2nccnc2Oc2ccc(C(=O)c3nc4ccccc4[nH]3)cc2)ccn1 [Example 120, (1H-benzo[d]imidazol-2-yl)(4-(3-(2-methoxypyridin-4-yl)pyrazin-2-yloxy)phenyl)methanone]	< 25
COc1cncc(-c2nccnc2Oc2ccc(C(=O)c3nc4ccccc4[nH]3)cc2)c1 [Example 118, (1H-benzo[d]imidazol-2-yl)(4-(3-(5-methoxypyridin-3-yl)pyrazin-2-yloxy)phenyl)methanone]	< 25
OC1CCN(c2nccnc2Oc2ccc(Nc3nc4ccccc4s3)cc2)CC1 [Example 67, 1-(3-(4-(benzo[d]thiazol-2-ylamino)phenoxy)pyrazin-2-yl)piperidin-4-ol]	< 25
CC(=O)OCC(=O)N1CCC(c2nccnc2Oc2ccc(C(=O)c3nc4ccccc4[nH]3)cc2)CC1 [Example 244, 2-(4-(3-(4-(1H-benzo[d]imidazole-2-carbonyl)phenoxy)pyrazin-2-yl)piperidin-1-yl)-2-oxoethyl acetate]	< 25
Fc1ccc2sc(Nc3ccc(Oc4nccnc4Cl)cc3)nc2c1 [Example 102, N-(4-(3-chloropyrazin-2-yloxy)-phenyl)-5-fluorobenzo[d]thiazol-2-amine]	1000 to 5000
O[C@H]1CCC[C@H](c2nccnc2Oc2ccc(Nc3nc4ccccc4s3)cc2)C1 (racemic) [Example 192, (rac)-trans-3-(3-(4-(benzo[d]thiazol-2-ylamino)phenoxy)pyrazin-2-yl)cyclohexanol]	< 25
Fc1cc(Oc2nccnc2C2CCOCC2)ccc1Nc1nc2ccccc2s1 [Example 215, N-(2-fluoro-4-(3-(terahydro-2H-pyran-4-yl)pyrazin-2-yloxy)phenyl)benzo[d]thiazol-2-amine]	< 25
O=C(c1ccc(Oc2nccnc2-c2cccc3ncccc23)cc1)c1nc2ccccc2[nH]1 [Example 130, (1H-benzo[d]imidazol-2-yl)(4-(3-(quinolin-5-yl)pyrazin-2-yloxy)phenyl)methanone]	25 to 100
COc1ncccc1-c1nccnc1Oc1ccc(C(=O)c2nc3ccccc3[nH]2)cc1 [Example 122, (1H-benzo[d]imidazol-2-yl)(4-(3-(2-methoxypyridin-3-yl)pyrazin-2-yloxy)phenyl)methanone]	< 25
CC(=O)N1CC(c2nccnc2Oc2ccc(C(=O)c3nc4ccccc4[nH]3)cc2)C1 [Example 250, 1-(3-(3-(4-(1H-benzo[d]imidazole-2-carbonyl)phenoxy)pyrazin-2-yl)azetidin-1-yl)ethanone]	< 25
O=C(c1ccc(Oc2nccnc2C(=O)NCCc2ccccc2)cc1)c1nc2ccccc2[nH]1 [Example 254, 3-(4-(1H-benzo[d]imidazole-2-carbonyl)phenoxy)-N-phenethylpyrazine-2-carboxamide]	< 25
c1ccc2sc(Nc3ccc(Oc4nccnc4N4CCc5[nH]cnc5C4)cc3)nc2c1 [Example 80, N-(4-(3-(6,7-dihydro-1H-imidazo[4,5-c]pyridin-5(4H)-yl)pyrazin-2-yloxy)phenyl)-benzo[d]thiazol-2-amine]	25 to 100
COc1ccc(-c2nccnc2Oc2ccc(C(=O)c3nc4ccccc4[nH]3)cc2)cn1 [Example 121, (1H-benzo[d]imidazol-2-yl)(4-(3-(6-methoxypyridin-3-yl)pyrazin-2-yloxy)phenyl)methanone]	< 25
O=C(c1ccc(Oc2nccnc2Cl)cc1)c1nc2ccccc2[nH]1 [Example 3, (1H-BENZO[D]IMIDAZOL-2-YL)(4-(3-CHLOROPYRAZIN-2-YLOXY)PHENYL)METHANONE]	1000 to 5000
c1ccc2sc(Nc3ccc(Oc4nccnc4-c4cncnc4)cc3)nc2c1 [Example 143, N-(4-(3-(pyrimidin-5-yl)pyrazin-2-yloxy)phenyl)benzo[d]thiazol-2-amine]	< 25
FC(F)(c1ccc(Oc2nccnc2N2CCOCC2)cc1)c1nc2ccccc2[nH]1 [Example 7, 4-(3-(4-((1H-BENZO[D]IMIDAZOL-2-YL)DIFLUOROMETHYL)PHENOXY)PYRAZIN-2-YL)MORPHOLINE]	100 to 250
CC(=O)N1CCC(c2nccnc2Oc2ccc(C(=O)c3nc4ccccc4[nH]3)cc2)CC1 [Example 224, 1-(4-(3-(4-(1H-BENZO[D]IMIDAZOLE-2-CARBONYL)PHENOXY)PYRAZIN-2-YL)PIPERIDIN-1-YL)ETHANONE]	< 25
OC1C=C(c2nccnc2Oc2ccc(Nc3nc4ccccc4s3)c(F)c2)CCC1 (racemic) [Example 137, (rac)-3-(3-(4-(benzo[d]thiazol-2-ylamino)-3-fluorophenoxy)pyrazin-2-yl)cyclohex-2-enol]	< 25
COC1CCN(c2nccnc2Oc2ccc(Nc3nc4ccccc4s3)cc2)CC1 [Example 92, N-(4-(3-(4-methoxypiperidin-1-yl)pyrazin-2-yloxy)phenyl)-benzo[d]thiazol-2-amine]	< 25
CC(=O)N1CCC(c2nccnc2Oc2ccc(Nc3nc4ccccc4s3)nc2)CC1 [Example 249, 1-(4-(3-(6-(benzo[d]thiazol-2-ylamino)pyridin-3-yloxy)pyrazin-2-yl)piperidin-1-yl)ethanone]	250 to 1000
O=S1(=O)CCN(c2nccnc2Oc2ccc(Nc3nc4ccccc4s3)cc2)CC1 [Example 75, N-(4-((3-(1,1-dioxido-4-thio-morpholinyl)-2-pyrazinyl)oxy)-phenyl)-1,3-benzothiazol-2-amine]	250 to 1000

same assay, conditions: PDE10 enzyme inhibition; average IC50 data for each compound; read-out: Average IC50

SMILES	IC50 [nM]
COC(=O)c1ccc(-c2nccnc2Oc2ccc(C(=O)c3nc4ccccc4[nH]3)cc2)cc1 [drawing 758]	33
N#C[C@@H]1CCCN(c2nccnc2Oc2ccc(C(=O)c3nc4ccccc4[nH]3)cc2)C1 (stereo in doubt)	6.79
O=C(c1ccc(Oc2nccnc2C2(O)CCOCC2)cc1)c1nc2ccccc2[nH]1 [drawing 908]	2.16
O[C@H]1CCC[C@@H](c2nccnc2Oc2ccc(Nc3nc4ccccc4s3)cc2)C1 [drawing 903]	1.33
Fc1cc(Oc2nccnc2C2CCOCC2)ccc1Nc1nc2ccccc2s1 [drawing 877]	2.64
O=C(c1ccc(Oc2nccnc2OCCCc2cccnc2)cc1)c1nc2ccccc2[nH]1 [drawing 861]	10.9
Cc1ncccc1-c1nccnc1Oc1ccc(C(=O)c2nc3ccccc3[nH]2)cc1 [drawing 947]	2.07
O=C(c1ccc(Oc2nccnc2OCc2ccncc2)cc1)c1nc2ccccc2[nH]1 [drawing 859]	14
COc1ncccc1-c1nccnc1Oc1ccc(C(=O)c2nc3cc(F)ccc3[nH]2)cc1 [drawing 931]	5.84
CCOc1nccnc1Oc1ccc(C(=O)c2nc3ccccc3[nH]2)cc1	46
O=C(c1ccc(Oc2nccnc2-c2ccnc3ccccc23)cc1)c1nc2ccccc2[nH]1 [drawing 799]	3.59
O=C(c1ccc(Oc2nccnc2[C@H]2CCC[C@@H](O)C2)cc1)c1nc2ccccc2[nH]1 [drawing 909]	0.961
CCOC(=O)[C@@H]1CCCN(c2nccnc2Oc2ccc(C(=O)c3nc4ccccc4[nH]3)cc2)C1 (stereo in doubt)	0.773
CN(C)CC(=O)N1CCC(c2nccnc2Oc2ccc(Nc3nc4ccccc4s3)cc2)CC1 [drawing 996]	0.705
COc1ncccc1-c1nccnc1Oc1ccc(C(=O)c2nc3ccccc3n2C)cc1 [drawing 896]	0.594
CN(C)CCOc1nccnc1Oc1ccc(C(=O)c2nc3ccccc3[nH]2)cc1 [drawing 857]	486
C[C@@H]1CN(c2nccnc2Oc2ccc(Nc3nc4ccccc4s3)cc2)CC(=O)N1 [drawing 834]	3.05
C[C@H](Cc1ccccn1)NC(=O)c1nccnc1Oc1ccc(C(=O)c2nc3ccccc3[nH]2)cc1 (racemic)	4.72
N#C[C@@H]1CCN(c2nccnc2Oc2ccc(C(=O)c3nc4ccccc4[nH]3)cc2)C1 (stereo in doubt)	1.32
Fc1ccc2sc(Nc3ccc(Oc4nccnc4Cl)cc3)nc2c1 [drawing 832]	> 30000
Fc1cc(Oc2cnccn2)ccc1Nc1nc2ccccc2s1 [drawing 878]	777
O[C@@H]1CCC[C@H](c2nccnc2Oc2ccc(Nc3nc4ccccc4s3)cc2)C1 [drawing 910]	2.22
CCOC(=O)[C@@H]1CCCN(c2nccnc2Oc2ccc(C(=O)c3nc4ccccc4[nH]3)cc2)C1 [drawing 830]	10.8
COCC(=O)N1CCC(c2nccnc2Oc2ccc(Nc3nc4ccccc4s3)cc2)CC1 [drawing 946]	0.024
CN1CCC(c2nccnc2Oc2ccc(C(=O)c3nc4ccccc4[nH]3)cc2)CC1=O (centres unmarked) [drawing 926]	6.02
O=C(c1ccc(Oc2nccnc2Cl)cc1)c1nc2ccc(F)cc2[nH]1 [drawing 813]	1580
COC(=O)C1CN(c2nccnc2Oc2ccc(Nc3nc4ccccc4s3)cc2)C1 [drawing 722]	8.4

same assay, conditions: PDE10 enzyme inhibition; chiral compounds separated from racemic mixtures; read-out: IC50

SMILES	IC50 [nM]
CCOC(=O)[C@@H]1CCCN(c2nccnc2Oc2ccc(C(=O)c3nc4ccccc4[nH]3)cc2)C1 [Example 263, (R)-ethyl 1-(3-(4-(1H-benzo[d]imidazole-2-carbonyl)phenoxy)pyrazin-2-yl)piperidine-3-carboxylate]	< 25
C[C@@H]1CN(c2nccnc2Oc2ccc(Nc3nc4ccccc4s3)cc2)CC(=O)N1 [Example 267, (R)-4-(3-(4-(benzo[d]thiazol-2-ylamino)phenoxy)pyrazin-2-yl)-6-methylpiperazin-2-one]	< 25
